The values that follow come from patent US9273057B2 (Bristol-Myers Squibb Company, priority 2012, dated 2016).

Molecules are shown by their SMILES.

Chain of CK2A1 (CK2α/β) (P68400 whole entry, species assumed): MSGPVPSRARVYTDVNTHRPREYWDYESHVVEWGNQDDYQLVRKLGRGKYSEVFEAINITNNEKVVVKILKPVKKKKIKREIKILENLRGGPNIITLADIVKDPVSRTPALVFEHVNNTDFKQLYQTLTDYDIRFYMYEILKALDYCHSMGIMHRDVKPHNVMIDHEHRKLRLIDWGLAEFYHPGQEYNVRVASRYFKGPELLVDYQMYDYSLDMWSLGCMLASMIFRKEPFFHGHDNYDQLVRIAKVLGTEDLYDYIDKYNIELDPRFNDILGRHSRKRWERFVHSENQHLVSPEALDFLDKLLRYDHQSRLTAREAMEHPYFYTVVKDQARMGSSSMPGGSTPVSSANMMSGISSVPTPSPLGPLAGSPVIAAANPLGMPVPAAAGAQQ
Chain of CK2A1 (CK2α/β) (P67870 whole entry partner, species assumed): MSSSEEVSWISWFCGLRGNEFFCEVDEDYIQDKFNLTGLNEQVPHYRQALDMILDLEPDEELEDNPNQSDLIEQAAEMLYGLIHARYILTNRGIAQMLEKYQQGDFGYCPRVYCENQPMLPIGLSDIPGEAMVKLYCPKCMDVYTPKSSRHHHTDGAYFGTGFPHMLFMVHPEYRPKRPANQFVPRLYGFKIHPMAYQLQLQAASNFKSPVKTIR

This assay has as its target CK2A1 (CK2α/β) (Homo sapiens, UniProt P68400). Kind of assay: CK2 kinase assay, CK2A1 (CK2α/β). The settings on record: Table A; read-out: CK2A1 (CK2α/β) (IC50). The assay is classed as biochemical.
Regarding `CC(CC(C)c1cc(Cl)c(Nc2nc(NC3CC3)c3ncc(C#N)n3n2)cc1C#N)NCC(F)(F)F` (stereo not drawn) [Example 732, 2-((2-chloro-5-cyano-4-(4-((2,2,2-trifluoroethyl)amino)pentan-2-yl)phenyl)amino)-4-(cyclopropylamino)imidazo[2,1-f][1,2,4]triazine-7-carbonitrile], the IC50 is 25.4 nM.

With `CNC(C)CC(C)c1cc(Cl)c(Nc2nc(NC3CC3)c3ncc(C#N)n3n2)cc1C#N` (stereo not drawn) [Example 733, 2-({2-chloro-5-cyano-4-[4-(methylamino)pentan-2-yl]phenyl}amino)-4-(cyclopropylamino)imidazo [2,1-f][1,2,4]triazine-7-carbonitrile], the IC50 came to 2.24 nM.

In the case of `CC(CC(C)N1CC(C)(O)C1)c1cc(Cl)c(Nc2nc(NC3CC3)c3ncc(C#N)n3n2)cc1C#N` (stereo not drawn) [Example 736, 2-({2-chloro-5-cyano-4-[4-(3-hydroxy-3-methylazetidin-1-yl)pentan-2-yl]phenyl}amino)-4-(cyclopropylamino)imidazo [2,1-f][1,2,4]triazine-7-carbonitrile], the IC50 stood at 4.86 nM.

Take `N#Cc1cc(Nc2nc(NC3CC3)c3ncc(C#N)n3n2)c(Cl)c(C(F)(F)CO)c1` [Example 737, 2-((2-chloro-5-cyano-3-(1,1-difluoro-2-hydroxyethyl)phenyl)amino)-4-(cyclopropylamino)imidazo[2,1-f][1,2,4]triazine-7-carbonitrile]: the IC50 was found to be 0.38 nM.

With `CN1CCN(CCC(F)(F)c2cc(C#N)cc(Nc3nc(NC4CC4)c4ncc(C#N)n4n3)c2Cl)CC1` [Example 738, 2-((2-chloro-5-cyano-3-(1,1-difluoro-3-(4-methylpiperazin-1-yl)propyl)phenyl)amino)-4-(cyclopropylamino)imidazo[2,1-f][1,2,4]triazine-7-carbonitrile], the IC50 is 0.27 nM.

For `CCNc1nc(Nc2cc(C#N)cc(N3CC[C@@H](NC(=O)OC)C(=O)C3)c2Cl)nn2c(C#N)cnc12` [Example 740, (R)-methyl (1-(2-chloro-5-cyano-3-((7-cyano-4-(ethylamino)imidazo[2,1-f][1,2,4]triazin-2-yl)amino)phenyl)-3-oxopiperidin-4-yl)carbamate], the IC50 came to 1.74 nM.

For the molecule `CCNc1nc(Nc2cc(C#N)cc(N3CC[C@@H](NC(=O)OC)[C@H](NC4COC4)C3)c2Cl)nn2c(C#N)cnc12` [Example 746, methyl ((3R,4R)-1-(2-chloro-5-cyano-3-((7-cyano-4-(ethylamino)imidazo[2,1-f][1,2,4]triazin-2-yl)amino)phenyl)-3-(oxetan-3-ylamino)piperidin-4-yl)carbamate], the IC50 stood at 1.36 nM.

With `CCNc1nc(Nc2cc(C#N)cc(N3CC[C@@H](NC(=O)OC)[C@@H](NC4COC4)C3)c2Cl)nn2c(C#N)cnc12` [Example 747, methyl ((3S,4R)-1-(2-chloro-5-cyano-3-((7-cyano-4-(ethylamino)imidazo[2,1-f][1,2,4]triazin-2-yl)amino)phenyl)-3-(oxetan-3-ylamino)piperidin-4-yl)carbamate], the IC50 came out at 1.62 nM.

With `COC(=O)N[C@H]1CCN(c2cc(C#N)cc(Nc3nc(NC4CC4)c4ncc(C#N)n4n3)c2Cl)C[C@@H]1NCC(F)F` [Example 748, methyl ((3S,4S)-1-(2-chloro-5-cyano-3-((7-cyano-4-(cyclopropylamino)imidazo[2,1-f][1,2,4]triazin-2-yl)amino)phenyl)-3-((2,2-difluoroethyl)amino)piperidin-4-yl)carbamate], the IC50 was 1.4 nM.

In the case of `COC(=O)N[C@H]1CCN(c2cc(C#N)cc(Nc3nc(NC4CC4)c4ncc(C#N)n4n3)c2Cl)C[C@H]1NCC(F)F` [Example 749, methyl ((3R,4S)-1-(2-chloro-5-cyano-3-((7-cyano-4-(cyclopropylamino)imidazo[2,1-f][1,2,4]triazin-2-yl)amino)phenyl)-3-((2,2-difluoroethyl)amino)piperidin-4-yl)carbamate], the IC50 came to 0.7 nM.

With `CCNc1nc(Nc2cc(C#N)cc(N3CC[C@@H](NC(=O)OC)[C@H](N(C)C4COC4)C3)c2Cl)nn2c(C#N)cnc12` [Example 750, methyl ((3R,4R)-1-(2-chloro-5-cyano-3-((7-cyano-4-(ethylamino)imidazo[2,1-f][1,2,4]triazin-2-yl)amino)phenyl)-3-(methyl(oxetan-3-yl)amino)piperidin-4-yl)carbamate], the IC50 came to 0.9 nM.

For `CCNc1nc(Nc2cc(C#N)cc(N3CC[C@@H](NC(=O)OC)[C@@H](N(C)C4COC4)C3)c2Cl)nn2c(C#N)cnc12` [Example 751, methyl ((3S,4R)-1-(2-chloro-5-cyano-3-((7-cyano-4-(ethylamino)imidazo[2,1-f][1,2,4]triazin-2-yl)amino)phenyl)-3-(methyl(oxetan-3-yl)amino)piperidin-4-yl)carbamate], the IC50 was determined as 1.3 nM.

For `COC(=O)N[C@H]1CCN(c2cc(C#N)cc(Nc3nc(NC4CC4)c4ncc(C#N)n4n3)c2Cl)CC1N[C@@H](C)C(N)=O` (stereo partly drawn) [Example 753, methyl N-[(4S)-3-{[(1S)-1-carbamoylethyl]amino}-1-(2-chloro-5-cyano-3-{[7-cyano-4-(cyclopropylamino)imidazo [2,1-f][1,2,4]triazin-2-yl]amino}phenyl)piperidin-4-yl]carbamate], the IC50 worked out at 2.46 nM.

Take `COC(=O)N[C@H]1CCN(c2cc(C#N)cc(Nc3nc(NC4CC4)c4ncc(C#N)n4n3)c2Cl)C[C@H]1NC1(C)COC1` [Example 754, methyl N-[(3R,4S)-1-(2-chloro-5-cyano-3-{[7-cyano-4-(cyclopropylamino)imidazo [2,1-f][1,2,4]triazin-2-yl]amino}phenyl)-3-[(3-methyloxetan-3-yl)amino]piperidin-4-yl]carbamate]: the IC50 stood at 2.93 nM.

Consider `COC(=O)N[C@H]1CCN(c2cc(C#N)cc(Nc3nc(NC4CC4)c4ncc(C#N)n4n3)c2Cl)C[C@H]1NC(C)C` [Example 756, methyl N-[(3R,4S)-1-(2-chloro-5-cyano-3-{[7-cyano-4-(cyclopropylamino)imidazo [2,1-f][1,2,4]triazin-2-yl]amino}phenyl)-3-[(propan-2-yl)amino]piperidin-4-yl]carbamate], for which the IC50 amounted to 4.43 nM.

Take `CCNc1nc(Nc2cc(C#N)cc(N3CC[C@@H](NC(=O)OC)[C@H](N[C@H](C)C(N)=O)C3)c2Cl)nn2c(C#N)cnc12` [Example 758, methl N-[(3R,4R)-3-{[(1S)-1-carbamoylethyl]amino}-1-(2-chloro-5-cyano-3-{[7-cyano-4-(ethylamino)imidazo[2,1-f][1,2,4]triazin-2-yl]amino}phenyl)piperidin-4-yl]carbamate]: the IC50 amounted to 1.4 nM.

Turning to `CCNc1nc(Nc2cc(C#N)cc(N3CC[C@@H](NC(=O)OC)[C@@H](NCC(O)C(F)(F)F)C3)c2Cl)nn2c(C#N)cnc12` (stereo partly drawn) [Example 761, methyl N-[(3S,4R)-1-(2-chloro-5-cyano-3-{[7-cyano-4-(ethylamino)imidazo[2,1-f][1,2,4]triazin-2-yl]amino}phenyl)-3-[(3,3,3-trifluoro-2-hydroxypropyl)amino]piperidin-4-yl]carbamate], the IC50 turned out to be 10 nM.

Take `COC(=O)N[C@H]1CCN(c2cc(C#N)cc(Nc3nc(NC4CC4)c4ncc(C#N)n4n3)c2Cl)CC1N(C)C1COC1` (stereo partly drawn) [Example 763, methyl N-[(4S)-1-(2-chloro-5-cyano-3-{[7-cyano-4-(cyclopropylamino)imidazo [2,1-f][1,2,4]triazin-2-yl]amino}phenyl)-3-[methyl(oxetan-3-yl)amino]piperidin-4-yl]carbamate]: the IC50 came out at 1.35 nM.
